Active and inactive are the calls of the source. No cut-off for these calls is given here.
Assays:
[1] = target: T1, Class 1 histone deacetylase (Homo sapiens) (UniProt Q13547+O15379+Q92769+Q9BY41); test: Inhibition of class 1 HDAC in human A549 cells assessed as acetyl histone H4 level at 2 uM incubated for 5 hrs by western blot analysis relative to control; format: cell-based
[2] = target: T2, Protein deacetylase HDAC6 (Homo sapiens) (UniProt Q9UBN7); test: Inhibition of HDAC6 in human A549 cells assessed as acetyl alpha-tubulin level at 10 uM incubated for 5 hrs by western blot analysis relative to control; format: cell-based
T2 sequence (whole entry): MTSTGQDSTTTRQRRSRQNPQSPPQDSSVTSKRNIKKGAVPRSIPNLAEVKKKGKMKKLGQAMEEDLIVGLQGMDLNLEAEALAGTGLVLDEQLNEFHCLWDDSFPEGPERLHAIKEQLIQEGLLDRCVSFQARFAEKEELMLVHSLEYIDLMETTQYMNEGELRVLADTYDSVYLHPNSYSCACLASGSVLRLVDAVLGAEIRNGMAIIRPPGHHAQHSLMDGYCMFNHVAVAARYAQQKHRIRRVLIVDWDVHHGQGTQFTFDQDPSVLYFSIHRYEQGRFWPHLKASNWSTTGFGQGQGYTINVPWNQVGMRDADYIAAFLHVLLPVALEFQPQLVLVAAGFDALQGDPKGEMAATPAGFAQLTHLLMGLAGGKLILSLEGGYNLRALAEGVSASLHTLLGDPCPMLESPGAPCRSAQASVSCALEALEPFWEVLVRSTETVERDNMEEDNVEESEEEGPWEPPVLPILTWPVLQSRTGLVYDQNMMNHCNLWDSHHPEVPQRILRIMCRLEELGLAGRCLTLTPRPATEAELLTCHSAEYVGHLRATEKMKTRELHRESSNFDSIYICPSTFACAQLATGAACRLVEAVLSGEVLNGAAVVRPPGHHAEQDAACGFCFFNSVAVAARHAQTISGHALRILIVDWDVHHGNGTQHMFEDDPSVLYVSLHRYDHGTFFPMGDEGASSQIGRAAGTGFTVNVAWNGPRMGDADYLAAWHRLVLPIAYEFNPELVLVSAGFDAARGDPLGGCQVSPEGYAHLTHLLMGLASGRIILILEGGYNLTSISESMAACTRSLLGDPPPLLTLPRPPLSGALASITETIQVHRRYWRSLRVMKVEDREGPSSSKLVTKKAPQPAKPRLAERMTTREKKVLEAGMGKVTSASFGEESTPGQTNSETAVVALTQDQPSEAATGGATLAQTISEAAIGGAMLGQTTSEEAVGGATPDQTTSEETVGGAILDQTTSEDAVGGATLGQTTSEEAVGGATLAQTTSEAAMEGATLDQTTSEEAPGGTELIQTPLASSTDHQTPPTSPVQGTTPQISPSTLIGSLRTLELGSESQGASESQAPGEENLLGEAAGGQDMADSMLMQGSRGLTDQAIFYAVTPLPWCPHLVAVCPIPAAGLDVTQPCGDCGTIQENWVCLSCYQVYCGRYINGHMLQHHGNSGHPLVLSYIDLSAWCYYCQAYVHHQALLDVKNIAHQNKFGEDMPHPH

[3] = target: T2, Protein deacetylase HDAC6 (Homo sapiens); test: Inhibition of HDAC6 in human A549 cells assessed as acetyl alpha-tubulin level at 2 uM incubated for 5 hrs by western blot analysis relative to control; format: cell-based
[4] = target: T1, Class 1 histone deacetylase (Homo sapiens); test: Inhibition of class 1 HDAC in human A549 cells assessed as acetyl histone H4 level at 10 uM incubated for 5 hrs by western blot analysis relative to control; format: cell-based
MM1.S = test: Antiproliferative activity against human MM1.S cells assessed as inhibition of cell proliferation incubated for 48 hrs by CCK8 assay; format: functional, cell-based
[5] = Cytotoxicity against human L02 cells assessed as inhibition of cell proliferation incubated for 48 hrs by CCK8 assay; format: toxicity, cell-based
RPMI-8226 = test: Antiproliferative activity against human RPMI-8226 cells assessed as inhibition of cell proliferation incubated for 48 hrs by CCK8 assay; format: functional, cell-based; conditions: RPMI-8226, 48 h
U-266 = test: Antiproliferative activity against human U-266 cells assessed as inhibition of cell proliferation incubated for 48 hrs by CCK8 assay; format: functional, cell-based; conditions: U-266, 48 h
Homo sapiens = species on record: Homo sapiens; test: Selectivity index, ratio of IC50 for inhibition of C-terminal FLAG-tagged human full length recombinant HDAC2 (1 to 488 residues) expressed in Sf9 cells to IC50 for inhibition of N-terminal GST-tagged human full length recombinant HDAC6 (1 to 1215 residues) expressed in Sf9 cells
Histone deacetylase 2 = Histone deacetylase 2 (Homo sapiens, UniProt Q92769); test: Inhibition of C-terminal FLAG-tagged human full length recombinant HDAC2 (1 to 488 residues) expressed in Sf9 cells using Boc-Lys(acetyI)-AMC as substrate preincubated with enzyme for 1 hr followed by substrate addition and measured after 30 mins by fluorescence based analysis
[6] = target: T3, Protein deacetylase HDAC6 (Homo sapiens, UniProt Q9UBN7); test: Inhibition of N-terminal GST-tagged human full length recombinant HDAC6 (1 to 1215 residues) expressed in Sf9 cells using Boc-Lys(acetyI)-AMC as substrate preincubated with enzyme for 1 hr followed by substrate addition and measured after 30 mins by fluorescence based analysis
T3 sequence (Q9UBN7 whole entry): T2 sequence (whole entry)

[7] = target: T1, Class 1 histone deacetylase (Homo sapiens); test: Irreversible inhibition of class 1 HDAC in human A549 cells assessed as acetyl histone H4 level at 2 uM incubated for 5 hrs followed by drug wash-out for 24 hrs by western blot analysis; format: cell-based
[8] = target: T2, Protein deacetylase HDAC6 (Homo sapiens); test: Irreversible inhibition of HDAC6 in human A549 cells assessed as acetyl alpha-tubulin level at 2 uM incubated for 5 hrs followed by drug wash-out for 24 hrs by western blot analysis relative to control; format: cell-based
[9] = target: T2, Protein deacetylase HDAC6 (Homo sapiens); test: Irreversible inhibition of HDAC6 in human A549 cells assessed as acetyl alpha-tubulin level at 2 uM incubated for 5 hrs followed by drug wash-out and measured immediately after drug wash-out by western blot analysis relative to control; format: cell-based
[10] = target: T1, Class 1 histone deacetylase (Homo sapiens); test: Irreversible inhibition of class 1 HDAC in human A549 cells assessed as acetyl histone H4 level at 2 uM incubated for 5 hrs followed by drug wash-out for 1 hr by western blot analysis; format: cell-based
[11] = target: T1, Class 1 histone deacetylase (Homo sapiens); test: Irreversible inhibition of class 1 HDAC in human A549 cells assessed as acetyl histone H4 level at 2 uM incubated for 5 hrs followed by drug wash-out and measured immediately after drug wash-out by western blot analysis; format: cell-based
[12] = target: T2, Protein deacetylase HDAC6 (Homo sapiens); test: Irreversible inhibition of HDAC6 in human A549 cells assessed as acetyl alpha-tubulin level at 2 uM incubated for 5 hrs followed by drug wash-out for 1 hr by western blot analysis relative to control; format: cell-based
[13] = target: T1, Class 1 histone deacetylase (Homo sapiens); test: Irreversible inhibition of class 1 HDAC in human A549 cells assessed as acetyl histone H4 level at 2 uM incubated for 5 hrs followed by drug wash-out for 6 hrs by western blot analysis; format: cell-based
[14] = Effect on HDAC6 protein expression in human A549 cells assessed as change in HDAC6 protein expression at 2 uM incubated for 5 hrs followed by drug wash-out for 1 hr by western blot analysis relative to control; format: functional
[15] = Effect on HDAC6 protein expression in human A549 cells assessed as change in HDAC6 protein expression at 2 uM incubated for 5 hrs followed by drug wash-out for 24 hrs by western blot analysis relative to control; format: functional
[16] = target: T2, Protein deacetylase HDAC6 (Homo sapiens); test: Irreversible inhibition of HDAC6 in human A549 cells assessed as acetyl alpha-tubulin level at 2 uM incubated for 5 hrs followed by drug wash-out for 6 hrs by western blot analysis relative to control; format: cell-based
[17] = target: T1, Class 1 histone deacetylase (Homo sapiens); test: Irreversible inhibition of class 1 HDAC in human A549 cells assessed as acetyl histone H3 level at 2 uM incubated for 5 hrs followed by drug wash-out for 1 hr by western blot analysis; format: cell-based
[18] = target: T1, Class 1 histone deacetylase (Homo sapiens); test: Irreversible inhibition of class 1 HDAC in human A549 cells assessed as acetyl histone H3 level at 2 uM incubated for 5 hrs followed by drug wash-out for 24 hrs by western blot analysis; format: cell-based
[19] = target: T1, Class 1 histone deacetylase (Homo sapiens); test: Irreversible inhibition of class 1 HDAC in human A549 cells assessed as acetyl histone H3 level at 2 uM incubated for 5 hrs followed by drug wash-out and measured immediately after drug wash-out by western blot analysis; format: cell-based
[20] = Effect on HDAC6 protein expression in human A549 cells assessed as change in HDAC6 protein expression at 2 uM incubated for 5 hrs followed by drug wash-out for 6 hrs by western blot analysis relative to control; format: functional
[21] = target: T1, Class 1 histone deacetylase (Homo sapiens); test: Irreversible inhibition of class 1 HDAC in human A549 cells assessed as acetyl histone H3 level at 2 uM incubated for 5 hrs followed by drug wash-out for 6 hrs by western blot analysis; format: cell-based
[22] = Effect on HDAC6 protein expression in human A549 cells assessed as change in HDAC6 protein expression at 2 uM incubated for 5 hrs followed by drug wash-out and measured following drug wash-out by western blot analysis relative to control; format: functional
[23] = target: T2, Protein deacetylase HDAC6 (Homo sapiens); conditions: A549, dose 80.0 nM, time 5.0 hrs

Chain of Histone deacetylase 2 (Q92769 whole entry, the tested form may be a part): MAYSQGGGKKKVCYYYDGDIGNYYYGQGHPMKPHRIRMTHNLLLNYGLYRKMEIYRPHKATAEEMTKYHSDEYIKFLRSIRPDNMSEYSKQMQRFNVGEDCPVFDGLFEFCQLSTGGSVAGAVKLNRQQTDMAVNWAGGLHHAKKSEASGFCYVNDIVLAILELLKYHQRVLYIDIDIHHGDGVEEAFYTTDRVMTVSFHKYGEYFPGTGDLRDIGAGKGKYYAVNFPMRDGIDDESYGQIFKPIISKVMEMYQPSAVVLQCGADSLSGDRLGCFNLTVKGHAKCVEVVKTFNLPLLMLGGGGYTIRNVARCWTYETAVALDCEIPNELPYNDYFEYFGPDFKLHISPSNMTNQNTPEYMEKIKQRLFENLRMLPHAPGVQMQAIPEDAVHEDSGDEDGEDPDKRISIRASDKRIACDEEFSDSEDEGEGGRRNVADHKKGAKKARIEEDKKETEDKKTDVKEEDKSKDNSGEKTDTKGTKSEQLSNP
T1 sequence (O15379 whole entry, looked up): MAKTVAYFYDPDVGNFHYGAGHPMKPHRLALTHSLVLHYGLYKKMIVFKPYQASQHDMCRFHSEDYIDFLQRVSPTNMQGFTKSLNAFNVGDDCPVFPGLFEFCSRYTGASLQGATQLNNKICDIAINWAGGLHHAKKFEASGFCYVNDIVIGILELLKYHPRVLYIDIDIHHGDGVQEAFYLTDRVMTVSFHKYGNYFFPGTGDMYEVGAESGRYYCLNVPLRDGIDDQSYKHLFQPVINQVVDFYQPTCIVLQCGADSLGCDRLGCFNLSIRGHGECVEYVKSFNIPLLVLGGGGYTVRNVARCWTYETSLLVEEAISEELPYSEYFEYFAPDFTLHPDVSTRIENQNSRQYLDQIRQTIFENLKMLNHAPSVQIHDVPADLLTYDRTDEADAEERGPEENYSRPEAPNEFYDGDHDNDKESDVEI
T1 sequence (Q13547 whole entry, looked up): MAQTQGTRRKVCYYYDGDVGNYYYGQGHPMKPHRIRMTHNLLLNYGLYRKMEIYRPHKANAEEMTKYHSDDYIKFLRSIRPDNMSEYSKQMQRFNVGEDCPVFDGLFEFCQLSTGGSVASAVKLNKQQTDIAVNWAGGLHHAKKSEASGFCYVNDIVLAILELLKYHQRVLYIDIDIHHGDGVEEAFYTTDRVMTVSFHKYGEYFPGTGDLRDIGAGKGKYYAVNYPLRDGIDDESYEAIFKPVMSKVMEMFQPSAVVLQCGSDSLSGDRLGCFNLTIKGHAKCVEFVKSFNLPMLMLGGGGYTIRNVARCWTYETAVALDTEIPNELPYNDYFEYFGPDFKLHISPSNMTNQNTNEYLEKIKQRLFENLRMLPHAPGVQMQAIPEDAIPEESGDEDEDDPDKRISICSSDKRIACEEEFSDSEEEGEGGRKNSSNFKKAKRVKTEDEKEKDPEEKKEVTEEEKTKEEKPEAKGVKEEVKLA
T1 sequence (Q92769 whole entry, looked up): as the sequence (Q92769 whole entry, the tested form may be a part) above
T1 sequence (Q9BY41 whole entry, looked up): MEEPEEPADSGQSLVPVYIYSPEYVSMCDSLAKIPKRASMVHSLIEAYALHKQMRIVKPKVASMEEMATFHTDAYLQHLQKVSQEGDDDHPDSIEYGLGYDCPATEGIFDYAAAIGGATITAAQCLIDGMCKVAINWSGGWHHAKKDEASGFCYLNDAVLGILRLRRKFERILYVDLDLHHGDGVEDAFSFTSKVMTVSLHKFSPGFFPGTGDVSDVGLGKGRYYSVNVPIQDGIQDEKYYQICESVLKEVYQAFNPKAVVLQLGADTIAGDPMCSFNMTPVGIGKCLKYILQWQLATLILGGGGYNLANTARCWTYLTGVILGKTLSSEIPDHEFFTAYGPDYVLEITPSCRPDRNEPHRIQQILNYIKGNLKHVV

## O=S(=O)(c1ccccc1)c1c(OCCCCCCO)no[n+]1[O-]
[1]
  fold change (FC): 1.3
[2]
  fold change (FC): 1.2
[3]
  fold change (FC): 1.3
[4]
  fold change (FC): 0.8

## O=S(=O)(c1ccccc1)c1c(OCc2ccc(CO)cc2)no[n+]1[O-]
MM1.S
  IC50: 0.91 µM
[5]
  IC50 at 48 h: 8.4 µM
RPMI-8226
  IC50: 1.1 µM
U-266
  IC50: 1.5 µM

## O=C(NO)c1cccc(Oc2no[n+]([O-])c2S(=O)(=O)c2ccccc2)c1
[1]
  fold change (FC): 0.2
Homo sapiens
  Ratio IC50: 0.2
Histone deacetylase 2
  IC50: 8.1 µM
[3]
  fold change (FC): 1.1
[6]
  IC50: 39.2 µM

## O=C(/C=C/COc1no[n+]([O-])c1S(=O)(=O)c1ccccc1)NO
[1]
  fold change (FC): 0.5
Homo sapiens
  Ratio IC50: 0.6
Histone deacetylase 2
  IC50: 6.6 µM
[3]
  fold change (FC): 0.8
[6]
  IC50: 10.4 µM

## COc1cc(C(=O)NO)ccc1Oc1no[n+]([O-])c1S(=O)(=O)c1ccccc1
[1]
  fold change (FC): 0.4
Homo sapiens
  Ratio IC50: 2
Histone deacetylase 2
  IC50: 5.3 µM
[3]
  fold change (FC): 1.3
[6]
  IC50: 2.7 µM

## O=C(CCCCCOc1no[n+]([O-])c1S(=O)(=O)c1ccccc1)NO
[1]
  fold change (FC): 2.1
[7]
  fold change (FC): 1.8
MM1.S
  IC50: 0.43 µM
[5]
  IC50 at 48 h: 8.7 µM
[8]
  fold change (FC): 2.5
[3]
  fold change (FC): 3.8
[9]
  fold change (FC): 2
[10]
  fold change (FC): 4.7
[6]
  IC50: 0.047 µM
RPMI-8226
  IC50: 0.48 µM
[11]
  fold change (FC): 4.4
U-266
  IC50: 0.69 µM
[12]
  fold change (FC): 2.2

## O=C(NO)c1ccc(Oc2no[n+]([O-])c2S(=O)(=O)c2ccccc2)cc1
[1]
  fold change (FC): 0.5
[7]
  fold change (FC): 0.6
MM1.S
  IC50: 1.1 µM
[13]
  fold change (FC): 0.9
[14]
  fold change (FC): 1.1
[15]
  fold change (FC): 1.2
[16]
  fold change (FC): 3.7
[5]
  IC50 at 48 h: 14.3 µM
[17]
  fold change (FC): 1.2
[18]
  fold change (FC): 0.7
[8]
  fold change (FC): 2.2
[19]
  fold change (FC): 1.1
[20]
  fold change (FC): 1.1
Homo sapiens
  Ratio IC50: 21.3
Histone deacetylase 2
  IC50: 3.4 µM
[3]
  fold change (FC): 2.1
[9]
  fold change (FC): 3.9
[21]
  fold change (FC): 0.9
[10]
  fold change (FC): 1.6
[6]
  IC50: 0.16 µM
RPMI-8226
  IC50: 1.2 µM
[11]
  fold change (FC): 1
[22]
  fold change (FC): 0.9
U-266
  IC50: 1.3 µM
[12]
  fold change (FC): 4.4

## O=C(NO)c1ccc(COc2nonc2S(=O)(=O)c2ccccc2)cc1
MM1.S
  IC50: 6.4 µM
[5]
  IC50 at 48 h: > 30 µM
RPMI-8226
  IC50: 6.1 µM
U-266
  IC50: > 10 µM

## O=C(/C=C/c1ccc(Oc2no[n+]([O-])c2S(=O)(=O)c2ccccc2)cc1)NO
[1]
  fold change (FC): 1.7
Homo sapiens
  Ratio IC50: 3.2
Histone deacetylase 2
  IC50: 1 µM
[3]
  fold change (FC): 2.7
[6]
  IC50: 0.31 µM

## CN1CCc2c(c3ccccc3n2Cc2ccc(C(=O)NO)cc2)C1
[23]
  inhibition: Active
